The target of one assay is T1, E. coli ClpB (Escherichia coli, UniProt P63284).
T1 construct: made in house
In kind it is biochemical. The protocol: (§1) To determine the ATPase activity, ClpB was diluted to 28 μg/ml (49-nM hexamer) in buffer C (50-mM Tris-HCl, pH 7.4, 20-mM MgCl2, 1-mM EDTA, 0.5-mM tris(2-carboxyethyl)phosphine [TCEP]). In some experiments, the ClpB solution was supplemented with 17.4 μg/ml (10 μM) κ-casein. The ClpB aliquots (18 μl) were mixed with 1 μl of the investigated compounds at different concentrations in 100% DMSO or with DMSO as a control. A sample without ClpB was used as a baseline control. After a 10-min preincubation at 37 or 45 °C, the ATP hydrolysis reaction was initiated by adding 1 μl of 100-mM ATP. The samples were incubated for 60 min (basal ClpB activity in the absence of κ-casein) or 15 min (in the presence of κ-casein) at 37 °C or 30 min at 45 °C in the absence of casein. For the E678Q ClpB variant, the incubation time in the presence of κ-casein was 60 min. After incubation, 15 μl of each sample was mixed with 200 μl of the ammonium molybdate/malachite green reagent ([67]) dispensed into a 96-well plate, followed by an addition of 30 μl of 34% sodium citrate ([68]). The plate was agitated inside a Synergy H1 reader (BioTek, Winooski, VT) for 15 min at room temperature, and the samples’ absorbance was measured at 630 nm. The readouts for ClpB-containing samples were corrected for absorbance of samples without ClpB, to account for nonenzymatic production of inorganic phosphate. A standard curve obtained with different inorganic phosphate concentrations was used to determine the amount of phosphate produced from ATP in the presence of ClpB.

Assay [1] deals with T2, ClpB–DnaK bichaperone system (DnaK–DnaJ–GrpE + ClpB) (Escherichia coli, UniProt P0A6Y8+P63284).
T2 construct: full-length E. coli DnaK (residues 1–638); made in house; host or cells: E. coli BL21(DE3) for DnaK
T2 sequence (P63284 whole entry, the tested form may be a part): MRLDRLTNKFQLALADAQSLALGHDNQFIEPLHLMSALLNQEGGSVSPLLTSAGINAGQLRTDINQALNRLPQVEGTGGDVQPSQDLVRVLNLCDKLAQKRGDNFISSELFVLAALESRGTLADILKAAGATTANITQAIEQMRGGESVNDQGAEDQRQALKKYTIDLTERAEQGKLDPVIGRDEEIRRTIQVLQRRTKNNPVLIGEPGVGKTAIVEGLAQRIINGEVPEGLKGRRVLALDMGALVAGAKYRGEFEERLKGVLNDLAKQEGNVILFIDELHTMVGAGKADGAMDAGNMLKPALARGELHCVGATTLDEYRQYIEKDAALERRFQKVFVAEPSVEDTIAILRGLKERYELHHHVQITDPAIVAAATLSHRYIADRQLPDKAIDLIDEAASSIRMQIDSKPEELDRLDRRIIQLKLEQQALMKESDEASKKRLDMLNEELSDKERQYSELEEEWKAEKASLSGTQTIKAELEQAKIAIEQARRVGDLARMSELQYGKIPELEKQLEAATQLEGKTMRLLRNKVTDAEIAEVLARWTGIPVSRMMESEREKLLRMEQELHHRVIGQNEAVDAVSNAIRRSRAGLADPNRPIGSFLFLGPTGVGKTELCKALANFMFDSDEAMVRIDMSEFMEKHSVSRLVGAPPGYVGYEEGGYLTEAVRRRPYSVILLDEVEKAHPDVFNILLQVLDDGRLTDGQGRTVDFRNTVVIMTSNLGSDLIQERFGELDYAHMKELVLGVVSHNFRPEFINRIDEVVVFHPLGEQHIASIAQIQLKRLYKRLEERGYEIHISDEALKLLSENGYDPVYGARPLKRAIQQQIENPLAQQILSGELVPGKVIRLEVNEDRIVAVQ
T2 sequence (P0A6Y8 whole entry, the tested form may be a part): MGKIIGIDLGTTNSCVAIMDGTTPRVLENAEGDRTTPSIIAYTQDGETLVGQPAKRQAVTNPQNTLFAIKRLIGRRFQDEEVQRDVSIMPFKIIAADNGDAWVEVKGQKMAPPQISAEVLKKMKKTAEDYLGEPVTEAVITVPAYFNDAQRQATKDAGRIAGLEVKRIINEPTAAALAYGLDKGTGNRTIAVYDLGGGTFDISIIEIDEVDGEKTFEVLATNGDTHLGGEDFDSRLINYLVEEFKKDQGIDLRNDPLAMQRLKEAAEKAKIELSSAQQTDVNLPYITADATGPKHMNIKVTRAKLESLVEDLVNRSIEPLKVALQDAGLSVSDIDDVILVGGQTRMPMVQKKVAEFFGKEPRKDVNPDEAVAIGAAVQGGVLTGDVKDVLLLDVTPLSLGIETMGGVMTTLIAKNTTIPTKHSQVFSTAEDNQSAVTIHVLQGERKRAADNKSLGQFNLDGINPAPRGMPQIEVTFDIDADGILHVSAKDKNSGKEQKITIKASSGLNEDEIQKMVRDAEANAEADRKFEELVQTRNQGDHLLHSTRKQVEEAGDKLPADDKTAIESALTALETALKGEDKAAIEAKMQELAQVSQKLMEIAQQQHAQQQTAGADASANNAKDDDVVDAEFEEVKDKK
Briefly: Aggregate reactivation assay with KJE + ClpB. The class given is biochemical. The protocol:
G6PDH was chemically denatured by mixing 5 μl of the G6PDH stock solution (441 μM) with 5 μl of buffer A (10 M urea, 16% glycerol, 40-mM DTT) preheated at 47 °C. The samples of G6PDH in buffer A were incubated for 5 min at 47 °C. Subsequently, 5 μl of denatured G6PDH was mixed with 95 μl of buffer B (50-mM Tris-HCl, pH 7.4, 20-mM Mg(OAc)2, 30-mM KCl, 1-mM EDTA, 1-mM β-mercaptoethanol) preheated at 47 °C to initiate protein refolding, which, under these conditions, is inefficient and leads to misfolding and aggregation of G6PDH ([69]). G6PDH aggregate production was arrested after 1 min (for refolding by KJE) or 15 min (for refolding by KJE with ClpB) by transferring into ice for 2 min. To observe the aggregate reactivation, aggregated G6PDH was diluted 10-fold in buffer C (50-mM Tris-HCl, pH 7.4, 20-mM MgCl2, 1-mM EDTA, 0.5-mM TCEP) containing the chaperones KJE (5.5-μM DnaK, 1.1-μM DnaJ, 1.1-μM GrpE) or KJE-ClpB (5.5-μM DnaK, 1.1-μM DnaJ, 1.1-μM GrpE, 1.65-μM ClpB (hexamer)). G6PDH in buffer C without chaperones was used as a control for a spontaneous aggregate reactivation. The chaperone-G6PDH samples (18 μl) were supplemented with 1 μl of DBeQ in DMSO or pure DMSO as a control. The samples were incubated for 2 min at 30 °C. The aggregate reactivation was initiated by adding 1 μl of 100-mM ATP, followed by incubation for 60 min at 30 °C. […] The plate was inserted into Synergy H1 plate reader (BioTek, Winooski, VT) with the chamber temperature at 30 °C, and the sample absorbance at 340 nm was measured after 10 min. The amount of NADPH produced was calculated based on the NADPH molar extinction coefficient, Ɛ340 = 6220 [M^−1 ⋅ cm^−1].
Firefly luciferase (220 μM) was diluted 300-fold in PBS buffer with 1 mg/ml bovine serum albumin and then incubated for 12 min at 45 °C. […] Luminescence was measured using Synergy H1 plate reader (BioTek, Winooski, VT).

The target of assay [2] is glucose-6-phosphate dehydrogenase (G6PDH) (Leuconostoc mesenteroides, UniProt P11411). Briefly: Native G6PDH activity. In kind it is biochemical. The settings on record: increasing DBeQ concentration. As for the experimental part: G6PDH was chemically denatured by mixing 5 μl of the G6PDH stock solution (441 μM) with 5 μl of buffer A (10 M urea, 16% glycerol, 40-mM DTT) preheated at 47 °C. The samples of G6PDH in buffer A were incubated for 5 min at 47 °C. Subsequently, 5 μl of denatured G6PDH was mixed with 95 μl of buffer B (50-mM Tris-HCl, pH 7.4, 20-mM Mg(OAc)2, 30-mM KCl, 1-mM EDTA, 1-mM β-mercaptoethanol) preheated at 47 °C to initiate protein refolding, which, under these conditions, is inefficient and leads to misfolding and aggregation of G6PDH ([69]). G6PDH aggregate production was arrested after 1 min (for refolding by KJE) or 15 min (for refolding by KJE with ClpB) by transferring into ice for 2 min. […] The plate was inserted into Synergy H1 plate reader (BioTek, Winooski, VT) with the chamber temperature at 30 °C, and the sample absorbance at 340 nm was measured after 10 min. The amount of NADPH produced was calculated based on the NADPH molar extinction coefficient, Ɛ340 = 6220 [M^−1 ⋅ cm^−1]. […]
Sequence of glucose-6-phosphate dehydrogenase (G6PDH) (P11411 whole entry): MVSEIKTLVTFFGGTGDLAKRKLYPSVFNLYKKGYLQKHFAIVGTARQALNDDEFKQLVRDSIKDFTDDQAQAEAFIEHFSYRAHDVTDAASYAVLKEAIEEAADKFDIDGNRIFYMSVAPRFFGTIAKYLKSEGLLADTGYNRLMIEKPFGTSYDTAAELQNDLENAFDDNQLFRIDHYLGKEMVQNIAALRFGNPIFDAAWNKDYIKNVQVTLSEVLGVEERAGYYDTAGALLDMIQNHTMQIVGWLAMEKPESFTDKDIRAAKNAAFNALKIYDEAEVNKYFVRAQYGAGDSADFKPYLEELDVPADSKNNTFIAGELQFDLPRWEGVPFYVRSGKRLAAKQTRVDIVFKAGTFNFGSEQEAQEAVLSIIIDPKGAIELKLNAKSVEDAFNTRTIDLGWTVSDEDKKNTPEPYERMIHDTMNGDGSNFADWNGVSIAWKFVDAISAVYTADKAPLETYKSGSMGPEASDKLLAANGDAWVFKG
conditions. The ATPase activity of wt ClpB was determined at 37 and 45 °C as the function of DBeQ concentration. […]
Supplementary Figure 7. […] (A) Firefly luciferase activity was determined in the absence (DMSO) or in the presence 100 µM ClpB inhibitor candidates. […] (B) G6PDH activity was determined in the presence of an increasing concentration of DBeQ and normalized to the DMSO control. […]

The test system of another assay is ClpB E279Q, E678Q. The assay can be described thus: ATPase activity of ClpB Walker B variants E279Q and E678Q. The class given is biochemical, Escherichia coli. The settings on record: with/without κ-casein. The protocol:
as §1, with “A standard curve obtained with different inorganic phosphate concentrations was used to determine the amount of phosphate produced from ATP in the presence of ClpB.” left out

SMILES strings stand for the structures. pIC50: −log10 of the molar value. Entries after “also recorded” stand apart in the source; their conditions may differ.

T1 sequence (P63284 whole entry): as the sequence (P63284 whole entry, the tested form may be a part) above

For `c1ccc(CNc2nc(NCc3ccccc3)c3ccccc3n2)cc1` [DBeQ, N^2,N^4-dibenzylquinazoline-2,4-diamine], the “inhibition of the basal ClpB ATPase” value on E. coli ClpB (100 μM compound, no casein, 37 °C) is “None of the above compounds, except C3, showed a significant inhibition”. Moreover, the “inhibition of the ClpB ATPase in the presence of casein” value on E. coli ClpB (100 μM compound, with κ-casein, 37 °C) is recorded as “strongly inhibited”. Further, the “effect on basal ClpB ATPase under heat-shock conditions” value at E. coli ClpB (45 °C, no casein) is listed as “unaffected; also recorded: does not inhibit”. Further, in assay [1], the pIC50 is around 5.30. The “inhibition of ClpB-dependent reactivation of aggregated luciferase” value in assay [1] (KJE + ClpB, 20 min, 25 °C) is given as “inhibited”. For the same molecule, in assay [1] (KJE + ClpB, 60 min, 30 °C, compared with KJE alone), the “inhibition of ClpB-dependent reactivation of aggregated G6PDH” value is “inhibited by DBeQ with a several-fold lower IC50 than ClpB-independent reactivation by KJE alone”. The “effect on native G6PDH activity” value in assay [2] is given as “not affected”. Further, in the assay on ClpB E279Q, E678Q, the “effect on ATPase of the two ATP-binding domains (D1, D2)” value is “only the C-terminal one (i.e., D2) showed casein-induced activation and was affected by DBeQ”.

The term pIC50 denotes the IC50 on a negative log10 scale, so that one unit is a factor of ten.

(Values after paper PMC7948422, “Repurposing p97 inhibitors for chemical modulation of the bacterial ClpB–DnaK bichaperone system” (The Journal of Biological Chemistry, 2020).)
